Experimental data taken from ChEMBL document CHEMBL3880428, “Sulfonamide derivative having PGD2 receptor antagonistic activity” (2012).

What was measured:
Type in all cases: cell-based
HEK293 [1] = test: Selectivity ratio of IC50 for PGD2 receptor in human platelets to IC50 for human EP4 receptor expressed in HEK293 cells by cAMP accumulation assay
HEK293 [2] = test: Selectivity ratio of IC50 for PGD2 receptor in human platelets to IC50 for human EP3 receptor expressed in HEK293 cells by cAMP accumulation assay
HEK293 [3] = test: Selectivity ratio of IC50 for PGD2 receptor in human platelets to IC50 for human EP1 receptor expressed in HEK293 cells by cAMP accumulation assay
HEK293 [4] = test: Selectivity ratio of IC50 for PGD2 receptor in human platelets to IC50 for human TP receptor expressed in HEK293 cells by cAMP accumulation assay
HEK293 [5] = test: Selectivity ratio of IC50 for PGD2 receptor in human platelets to IC50 for human IP receptor expressed in HEK293 cells by cAMP accumulation assay
HEK293 [6] = test: Selectivity ratio of IC50 for PGD2 receptor in human platelets to IC50 for human EP2 receptor expressed in HEK293 cells by cAMP accumulation assay
HEK293 [7] = test: Selectivity ratio of IC50 for PGD2 receptor in human platelets to IC50 for human FP receptor expressed in HEK293 cells by cAMP accumulation assay

Measured: Ratio IC50

CC(C)Oc1ccc(S(=O)(=O)N2CCN(c3ccc(C(=O)NCC4CC4)c(OCC(=O)O)c3)CC2)cc1
> 20: all assays above

CC(C)Oc1ccc(S(=O)(=O)N2CCN(c3cc(OCC(=O)O)cc(C(F)(F)F)c3)CC2)cc1
> 20: all assays above

CC(C)Oc1ccc(S(=O)(=O)N2CCN(c3ccc([N+](=O)[O-])c(OCC(=O)O)c3)CC2)cc1
> 20: all assays above

CC(C)Oc1ccc(S(=O)(=O)N2CCN(c3cc(Cl)cc(OCC(=O)O)c3)CC2)cc1
> 20: all assays above

CC(C)Oc1ccc(S(=O)(=O)N2CCN(c3ccc(C(=O)Nc4nccs4)c(OCC(=O)O)c3)CC2)cc1
> 20: all assays above

CC(C)Oc1ccc(S(=O)(=O)N2CCN(c3ccc(Cl)c(OCC(=O)O)c3)CC2)cn1
> 20: all assays above

CC(C)Oc1ccc(S(=O)(=O)N2CCN(c3ccc(Cl)c(OCC(=O)O)c3)CC2)cc1
> 20: all assays above

Cc1nnc(-c2ccc(N3CCN(S(=O)(=O)c4ccc(OC(C)C)cc4)CC3)cc2OCC(=O)O)s1
> 20: all assays above

CC(C)Oc1ccc(S(=O)(=O)N2CCN(c3ccc(OCc4ccoc4)c(OCC(=O)O)c3)CC2)cc1
> 20: all assays above

Cc1cc(OCC(=O)O)cc(N2CCN(S(=O)(=O)c3ccc(OC(C)C)cc3)CC2)c1
> 20: all assays above

CC(C)Oc1ccc(S(=O)(=O)N2CCN(c3ccc(-c4ccccc4)c(OCC(=O)O)c3)CC2)cc1
> 20: all assays above

CC(C)Oc1ccc(S(=O)(=O)N2CCN(c3ccc(C(=O)Nc4nc5ccccc5[nH]4)c(OCC(=O)O)c3)CC2)cc1
> 20: all assays above

CC(C)Oc1ccc(S(=O)(=O)N2CCN(c3ccc(Cl)c(CC(=O)O)c3)CC2)cc1
> 20: all assays above

CC(C)Oc1ccc(S(=O)(=O)N2CCN(c3ccc(Br)c(OCC(=O)O)n3)CC2)cc1
> 20: all assays above

CC(C)Oc1ccc(S(=O)(=O)N2CCN(c3ccc(-c4nccs4)c(OCC(=O)O)c3)CC2)cc1
> 20: all assays above

COc1cccc(OC2CCN(S(=O)(=O)c3ccc(OC(C)C)cc3)CC2)c1CCC(=O)O
> 20: all assays above

CC(C)Oc1ccc(S(=O)(=O)N2CCN(c3ccc(OCc4ccccc4)c(OCC(=O)O)c3)CC2)cc1
> 20: all assays above

CC(C)Oc1ccc(S(=O)(=O)N2CCN(c3ccc(Cl)c(OCC(=O)O)c3)CC2)cc1F
> 20: all assays above

CC(C)Oc1ccc(S(=O)(=O)N2CCN(c3ccc(-c4ccco4)c(OCC(=O)O)c3)CC2)cc1
> 20: all assays above

CC(C)Oc1ccc(S(=O)(=O)N2CCN(c3ccc(C(=O)Nc4ccn(C)n4)c(OCC(=O)O)c3)CC2)cc1
> 20: all assays above

CC(C)Oc1ccc(S(=O)(=O)N2CCN(c3cc(Br)cc(OCC(=O)O)c3)CC2)cc1
> 20: all assays above

CC(C)Oc1ccc(S(=O)(=O)N2CCN(c3ccc(NC(=O)c4ccco4)c(OCC(=O)O)c3)CC2)cc1
> 20: all assays above

CC(C)Oc1ccc(S(=O)(=O)N2CCN(c3ccc(-n4cccn4)c(OCC(=O)O)c3)CC2)cc1
> 20: all assays above

CC(=O)c1ccc(N2CCN(S(=O)(=O)c3ccc(OC(C)C)cc3)CC2)cc1OCC(=O)O
> 20: all assays above

CC(C)Oc1ccc(S(=O)(=O)N2CCN(c3ccc(C#N)c(OCC(=O)O)c3)CC2)cc1
> 20: all assays above

CC(C)Oc1ccc(S(=O)(=O)N2CCN(c3cc(F)cc(OCC(=O)O)c3)CC2)cc1
> 20: all assays above

Cc1nnc(-c2ccc(N3CCN(S(=O)(=O)c4ccc(OC(C)C)cc4)CC3)cc2OCC(=O)O)o1
> 20: all assays above

CC(C)Oc1ccc(S(=O)(=O)N2CCN(c3ccc(-c4ncco4)c(OCC(=O)O)c3)CC2)cn1
> 20: all assays above

CC(C)Oc1ccc(S(=O)(=O)N2CCN(c3ccc(NC(=O)c4ccccc4)c(OCC(=O)O)c3)CC2)cc1
> 20: all assays above

CC[C@@H](C)Oc1ccc(S(=O)(=O)N2CCN(c3ccc(Cl)c(OCC(=O)O)c3)CC2)cc1
> 20: all assays above

CC(C)Oc1ccc(S(=O)(=O)N2CCN(c3ccc([N+](=O)[O-])c(NCC(=O)O)c3)CC2)cc1
> 20: all assays above

CC(C)Oc1ccc(S(=O)(=O)N2CCN(c3ccc(C(=O)Nc4nncs4)c(OCC(=O)O)c3)CC2)cc1
> 20: all assays above

CC(C)Oc1ccc(S(=O)(=O)N2CCC(c3ccc(Cl)c(OCC(=O)O)c3)CC2)cc1
> 20: all assays above
